Data from patent US4287206A, “Halogen derivatives of 8-hydroxycarboxylic acids; the processes for their preparation and medicaments in which they are present” (priority 1978, dated 1981).
Read-outs that look alike come from different tables or passages of the source.

Legend:
mice [1] = assay: Anti-reserpine activity in mice (reserpine hypothermia); assay type: in vivo; details: reserpine 2.5 mg.kg^-1 i.p. 4 h before
Protocol: Anti-reserpine activity in mice
At time 0, the mice receive reserpine (2.5 mg.kg^-1) by intraperitoneal administration.
After 4 hours, when the hypothermia is significant (30 to 31°C.), the substance to be studied is administered intraperitoneally or orally. The rectal temperature is measured, using a probe, carrying a thermoelectric couple, inserted to a constant depth, every 30 minutes for 2 hours.

mice [2] = assay: Interaction with barbital sodium (sleep induced by barbital sodium in mice); assay type: in vivo; details: barbital sodium 180 mg.kg^-1 i.p.
Protocol: Interaction with barbital sodium
At time 0, the mice receive, by intraperitoneal or oral administration, distilled water or the medicament according to the invention. After 30 minutes, they receive barbital sodium (180 mg.kg^-1) by intraperitoneal administration.

[3] = Determination of the acute toxicity to mice (BEHRENS and KARBER); details: mouse, in vivo
Protocol: All the experiments reported below were carried out on male rats having a weight of between 170 and 220 g (Wistar AF strain) and male mice having a weight of between 18 and 23 g (Swiss NMRI strain), unless otherwise stated in the following text.
Determination of the acute toxicity to mice
Method used: BEHRENS and KARBER

mice [4] = assay: Sleep induced by pentobarbital in mice; assay type: in vivo; details: pentobarbital 50 mg.kg^-1 i.p.
Protocol: (b) Absence of modification of the effects of pentobarbital
At time 0, the mice receive, by intraperitoneal or oral administration, distilled water or the medicament according to the invention, obtained in accordance with Example I. After 30 minutes, they receive pentobarbital (50 mg.kg^-1) by intraperitoneal administration.

CC1CC(c2ccc(Cl)cc2)C(c2ccccc2)C(=O)O1 (stereo not drawn) [Example I, trans-4-(4'-chlorophenyl)-6-methyl-3-phenyl-3,4,5,6-tetrahydropyrone-2]
Rectal temperatures °C. ± SD (mice [1]; Table IIa, 4 mg/kg oral, 30 min): 30.6 ± 0.39 °C | Rectal temperatures °C. ± SD (mice [1]; Table IIa, 4 mg/kg oral, 60 min): 30.6 ± 0.45 °C | Rectal temperatures °C. ± SD (mice [1]; Table IIa, 4 mg/kg oral, 90 min): 30.7 ± 0.59 °C | Rectal temperatures °C. ± SD (mice [1]; Table IIa, 4 mg/kg oral, 120 min): 30.4 ± 0.67 °C | Rectal temperatures °C. ± SD (mice [1]; Table IIa, 8 mg/kg oral, 30 min): 31.1 ± 0.36 °C | Rectal temperatures °C. ± SD (mice [1]; Table IIa, 8 mg/kg oral, 60 min): 31.4 ± 0.56 °C | Rectal temperatures °C. ± SD (mice [1]; Table IIa, 8 mg/kg oral, 90 min): 31.5 ± 0.57 °C | Rectal temperatures °C. ± SD (mice [1]; Table IIa, 8 mg/kg oral, 120 min): 31.3 ± 0.56 °C | Rectal temperatures °C. ± SD (mice [1]; Table IIa, 16 mg/kg oral, 30 min): 31.4 ± 0.41 °C | Rectal temperatures °C. ± SD (mice [1]; Table IIa, 16 mg/kg oral, 60 min): 32.6 ± 0.56 °C | Rectal temperatures °C. ± SD (mice [1]; Table IIa, 16 mg/kg oral, 90 min): 32.8 ± 0.53 °C | Rectal temperatures °C. ± SD (mice [1]; Table IIa, 16 mg/kg oral, 120 min): 32.8 ± 0.45 °C | Rectal temperatures °C. ± SD (mice [1]; Table IIa, 32 mg/kg oral, 30 min): 31.4 ± 0.31 °C | Rectal temperatures °C. ± SD (mice [1]; Table IIa, 32 mg/kg oral, 60 min): 32.6 ± 0.44 °C | Rectal temperatures °C. ± SD (mice [1]; Table IIa, 32 mg/kg oral, 90 min): 32.9 ± 0.41 °C | Rectal temperatures °C. ± SD (mice [1]; Table IIa, 32 mg/kg oral, 120 min): 32.8 ± 0.38 °C | Rectal temperatures °C. ± SD (mice [1]; Table IIa, 64 mg/kg oral, 30 min): 33.8 ± 0.58 °C | Rectal temperatures °C. ± SD (mice [1]; Table IIa, 64 mg/kg oral, 60 min): 34.5 ± 0.33 °C | Rectal temperatures °C. ± SD (mice [1]; Table IIa, 64 mg/kg oral, 90 min): 34.4 ± 0.39 °C | Rectal temperatures °C. ± SD (mice [1]; Table IIa, 64 mg/kg oral, 120 min): 34.4 ± 0.35 °C | Rectal temperatures °C. ± SD (mice [1]; Table IIa, 128 mg/kg oral, 30 min): 33.1 ± 0.56 °C | Rectal temperatures °C. ± SD (mice [1]; Table IIa, 128 mg/kg oral, 60 min): 34.1 ± 0.56 °C | Rectal temperatures °C. ± SD (mice [1]; Table IIa, 128 mg/kg oral, 90 min): 34.3 ± 0.58 °C | Rectal temperatures °C. ± SD (mice [1]; Table IIa, 128 mg/kg oral, 120 min): 34.2 ± 0.53 °C | Rectal temperatures °C. ± SD (mice [1]; Table IIa, 256 mg/kg oral, 30 min): 33.5 ± 0.47 °C | Rectal temperatures °C. ± SD (mice [1]; Table IIa, 256 mg/kg oral, 60 min): 35.2 ± 0.15 °C | Rectal temperatures °C. ± SD (mice [1]; Table IIa, 256 mg/kg oral, 90 min): 35.3 ± 0.34 °C | Rectal temperatures °C. ± SD (mice [1]; Table IIa, 256 mg/kg oral, 120 min): 35.1 ± 0.33 °C | Rectal temperatures °C. ± SD (mice [1]; 4 mg/kg intraperitoneal, 30 min): 32.7 ± 0.56 °C | Rectal temperatures °C. ± SD (mice [1]; 4 mg/kg intraperitoneal, 60 min): 33.7 ± 0.47 °C | Rectal temperatures °C. ± SD (mice [1]; 4 mg/kg intraperitoneal, 90 min): 33.1 ± 0.39 °C | Rectal temperatures °C. ± SD (mice [1]; 4 mg/kg intraperitoneal, 120 min): 32.2 ± 0.46 °C | Rectal temperatures °C. ± SD (mice [1]; 8 mg/kg intraperitoneal, 30 min): 33.1 ± 0.32 °C | Rectal temperatures °C. ± SD (mice [1]; 8 mg/kg intraperitoneal, 60 min): 34.1 ± 0.24 °C | Rectal temperatures °C. ± SD (mice [1]; 8 mg/kg intraperitoneal, 90 min): 34.0 ± 0.38 °C | Rectal temperatures °C. ± SD (mice [1]; 8 mg/kg intraperitoneal, 120 min): 33.6 ± 0.49 °C | Rectal temperatures °C. ± SD (mice [1]; 16 mg/kg intraperitoneal, 30 min): 35.3 ± 0.51 °C | Rectal temperatures °C. ± SD (mice [1]; 16 mg/kg intraperitoneal, 60 min): 35.7 ± 0.34 °C | Rectal temperatures °C. ± SD (mice [1]; 16 mg/kg intraperitoneal, 90 min): 35.3 ± 0.37 °C | Rectal temperatures °C. ± SD (mice [1]; 16 mg/kg intraperitoneal, 120 min): 35.0 ± 0.44 °C | Rectal temperatures °C. ± SD (mice [1]; 32 mg/kg intraperitoneal, 30 min): 34.8 ± 0.48 °C | Rectal temperatures °C. ± SD (mice [1]; 32 mg/kg intraperitoneal, 60 min): 36.2 ± 0.38 °C | Rectal temperatures °C. ± SD (mice [1]; 32 mg/kg intraperitoneal, 90 min): 35.6 ± 0.38 °C | Rectal temperatures °C. ± SD (mice [1]; 32 mg/kg intraperitoneal, 120 min): 35.7 ± 0.37 °C | % of mice which have slept (mice [2]; 2 mg/kg intraperitoneal): 100% | Time in minutes for induction of sleep (mice [2]; 2 mg/kg intraperitoneal): 27 min | Time in minutes of sleep (mice [2]; 2 mg/kg intraperitoneal): 67 ± 16 min | % of mice which have slept (mice [2]; 2 mg/kg oral): 83% | Time in minutes for induction of sleep (mice [2]; 2 mg/kg oral): 25 min | Time in minutes of sleep (mice [2]; 2 mg/kg oral): 47 ± 15 min | % of mice which have slept (mice [2]; 4 mg/kg intraperitoneal): 83% | Time in minutes for induction of sleep (mice [2]; 4 mg/kg intraperitoneal): 22 min | Time in minutes of sleep (mice [2]; 4 mg/kg intraperitoneal): 37 ± 13 min | % of mice which have slept (mice [2]; 4 mg/kg oral): 25% | Time in minutes for induction of sleep (mice [2]; 4 mg/kg oral): 33 min | Time in minutes of sleep (mice [2]; 4 mg/kg oral): 56 min | % of mice which have slept (mice [2]; 8 mg/kg intraperitoneal): 83% | Time in minutes for induction of sleep (mice [2]; 8 mg/kg intraperitoneal): 30 min | Time in minutes of sleep (mice [2]; 8 mg/kg intraperitoneal): 25 ± 4 min | % of mice which have slept (mice [2]; 8 mg/kg oral): 42% | Time in minutes for induction of sleep (mice [2]; 8 mg/kg oral): 32 min | Time in minutes of sleep (mice [2]; 8 mg/kg oral): 43 min | % of mice which have slept (mice [2]; 16 mg/kg intraperitoneal): 33% | Time in minutes for induction of sleep (mice [2]; 16 mg/kg intraperitoneal): 38 min | Time in minutes of sleep (mice [2]; 16 mg/kg intraperitoneal): 14 min | % of mice which have slept (mice [2]; 16 mg/kg oral): 0% | Time in minutes for induction of sleep (mice [2]; 16 mg/kg oral): 0 min | Time in minutes of sleep (mice [2]; 16 mg/kg oral): 0 min | % of mice which have slept (mice [2]; 32 mg/kg intraperitoneal): 0% | Time in minutes for induction of sleep (mice [2]; 32 mg/kg intraperitoneal): 0 min | Time in minutes of sleep (mice [2]; 32 mg/kg intraperitoneal): 0 min | % of mice which have slept (mice [2]; 32 mg/kg oral): 00% | Time in minutes for induction of sleep (mice [2]; 32 mg/kg oral): 0 min | Time in minutes of sleep (mice [2]; 32 mg/kg oral): 0 min | LD50 ([3]; ip, intraperitoneal, read-out: LD50 (intraperitoneal administration)): 520 mg/kg | LD50 ([3]; oral, read-out: LD50 (oral administration)): 1050 mg/kg | % of mice which have slept (mice [4]; 2 mg/kg intraperitoneal): 100% | Time in minutes for induction of sleep (mice [4]; 2 mg/kg intraperitoneal): 4 min | Time in minutes of sleep (mice [4]; 2 mg/kg intraperitoneal): 47 ± 7 min | % of mice which have slept (mice [4]; 2 mg/kg oral): 100% | Time in minutes for induction of sleep (mice [4]; 2 mg/kg oral): 4 min | Time in minutes of sleep (mice [4]; 2 mg/kg oral): 60 ± 8 min | % of mice which have slept (mice [4]; 4 mg/kg intraperitoneal): 100% | Time in minutes for induction of sleep (mice [4]; 4 mg/kg intraperitoneal): 4 min | Time in minutes of sleep (mice [4]; 4 mg/kg intraperitoneal): 55 ± 8 min | % of mice which have slept (mice [4]; 4 mg/kg oral): 100% | Time in minutes for induction of sleep (mice [4]; 4 mg/kg oral): 4 min | Time in minutes of sleep (mice [4]; 4 mg/kg oral): 45 ± 4 min | % of mice which have slept (mice [4]; 8 mg/kg intraperitoneal): 100% | Time in minutes for induction of sleep (mice [4]; 8 mg/kg intraperitoneal): 4 min | Time in minutes of sleep (mice [4]; 8 mg/kg intraperitoneal): 36 ± 3 min | % of mice which have slept (mice [4]; 8 mg/kg oral): 100% | Time in minutes for induction of sleep (mice [4]; 8 mg/kg oral): 4 min | Time in minutes of sleep (mice [4]; 8 mg/kg oral): 57 ± 10 min | % of mice which have slept (mice [4]; 16 mg/kg intraperitoneal): 83% | Time in minutes for induction of sleep (mice [4]; 16 mg/kg intraperitoneal): 4.5 min | Time in minutes of sleep (mice [4]; 16 mg/kg intraperitoneal): 26 ± 7 min | % of mice which have slept (mice [4]; 16 mg/kg oral): 100% | Time in minutes for induction of sleep (mice [4]; 16 mg/kg oral): 4 min | Time in minutes of sleep (mice [4]; 16 mg/kg oral): 41 ± 7 min | % of mice which have slept (mice [4]; 32 mg/kg intraperitoneal): 92% | Time in minutes for induction of sleep (mice [4]; 32 mg/kg intraperitoneal): 4.5 min | Time in minutes of sleep (mice [4]; 32 mg/kg intraperitoneal): 27 ± 3 min | % of mice which have slept (mice [4]; 32 mg/kg oral): 100% | Time in minutes for induction of sleep (mice [4]; 32 mg/kg oral): 4 min | Time in minutes of sleep (mice [4]; 32 mg/kg oral): 49 ± 4 min | % of mice which have slept (mice [4]; 64 mg/kg intraperitoneal): 100% | Time in minutes for induction of sleep (mice [4]; 64 mg/kg intraperitoneal): 4 min | Time in minutes of sleep (mice [4]; 64 mg/kg intraperitoneal): 30 ± 9 min | % of mice which have slept (mice [4]; 64 mg/kg oral): 100% | Time in minutes for induction of sleep (mice [4]; 64 mg/kg oral): 5 min | Time in minutes of sleep (mice [4]; 64 mg/kg oral): 29 ± 8 min | % of mice which have slept (mice [4]; 128 mg/kg intraperitoneal): 83% | Time in minutes for induction of sleep (mice [4]; 128 mg/kg intraperitoneal): 6 min | Time in minutes of sleep (mice [4]; 128 mg/kg intraperitoneal): 25 ± 5 min | % of mice which have slept (mice [4]; 128 mg/kg oral): 100% | Time in minutes for induction of sleep (mice [4]; 128 mg/kg oral): 4 min | Time in minutes of sleep (mice [4]; 128 mg/kg oral): 38 ± 7 min
